Results published in patent publication US20240307346A1, “METHOD FOR TREATING OR PREVENTING A DISEASE OF INCOMPLETE IMMUNE RECONSTITUTION IN AIDS USING (5R)-5-HYDROXYTRIPTOLIDE” (PEKING UNION MEDICAL COLLEGE HOSPITAL, priority 2018, published 2024).
Converted amounts (≈) assume the structure as drawn.

What was measured:
NF-κB = NF-κB luciferase reporter (p3κB-luc) assay in HEK293T cells; format: cell-based; settings: for inhibition of the activity of the NF-κB signal pathway activated by TNF-α / inhibition of the activity of the background NF-κB signaling pathway: Comparative Example 2, HEK293T, FIG. 5; for inhibition of the activity of the NF-κB signal pathway activated by TNF-α: TNF-α 20 ng/ml; for inhibition of the activity of the background NF-κB signaling pathway: no TNF-α
Method: NF-κB driven […] expression plasmid (p3κB-luc, 100 ng) and internal reference plasmid pBgal (purchased from Bioonline: www.bioon.com.cn) (pSV-β-Galactosidase Control Vector, β-galactosidase expression plasmid, 5 ng) were transfected into HEK293T cells (purchased from ATCC). […] After another 24 hours, all cells were collected and lysed with reporter lysis buffer (purchased from Promega). Luciferase assay system (Promega) was used to detect luciferase activity. Beta-Glo Asaay system (Promega) was used to detect β-Galactosidase activity, and the inhibition effects of T8 on NF-κB activity was analyzed.
The NF-κB reporter gene plasmid p3κB-luc was transfected into HEK293T cells for expression, and pSV-β-Galactosidase Control Vector was co-transfected as transfection internal reference. The activation of NF-κB was induced by TNF-α treatment. T8 and triptolide were added respectively. The expression of NF-κB reporter gene was indicated by detecting luciferase activity, and the effect of T8 and triptolide on NF-κB activation induced by TNF-α was evaluated.
Cell transfection: HEK293T cells were transfected with lipofectamine 2000 Transfection Reagent according to the reagent instructions. 100 ng of plasmid was transfected with 1 μL of transfection reagent into each well of a 24-well cell cultureplate. The plasmid and the transfection reagent were diluted with […] of OPTI-MEM medium, respectively and then mixed together. The mixture was allowed to stand at room temperature for 5 minutes, and then added into the cells in each well. The resulting mixture was mixed gently, placed back into the 37° C. incubator, and the cells were cultured for a specified time.
Luciferase activity detection: NF-κB reporter gene plasmid p3κB-luc plasmid (100 ng), internal reference plasmid pSV-β-Galactosidase Control Vector (5 ng) were transfected into HEK293T cells. After 24 hours. TNF-α (20 ng/ml) was added (or not added) to stimulate the cells for 24 hours, and then the cells were collected and lysed with reporter lysis buffer. Luciferase assay system was used to detect luciferase activity. and Beta-Glo Asaay system was used to detect β-Galactosidase activity.

CD4+T-cells = test: CFSE proliferation of CD4+T-cells in PHA-P stimulated PBMC; format: cell-based, human; settings: for inhibition of the proliferation of CD4+T-cells in healthy human peripheral blood: Comparative Example 4, PHA-P 5 μg/mL, 100 ng/mL, 72 hours, FIG. 7
Method: Healthy human peripheral blood mononuclear cells (PBMC) (purchased from ATCC) were cultured in RPMI-1640/10% FBS serum medium containing IL-2 (20IU). and then stained with CFSE (carboxyfluorescein diacetate succinimidy ester) (10 nM) at 37° C. for 10 minutes, washed twice with the above medium, followed by addition of PHA-P (phytohemagglutinin P) (5 μg/mL) to stimulate cell proliferation with or without addition of T8 compound (100 nM).
The cells were washed with the medium twice, PHA-P (5 μg/mL) was added, and the test compound T8 or triptolide (100 ng/mL each) was added at the same time. After 72 hours at 37° C. the cells were collected, stained with anti-CD4-PE antibody at 4°° C. for 30 minutes, and washed with FACS buffer twice. The cell proliferation was analyzed by flow cytometry.

MTT cytotoxicity test = format: cell-based; settings: human, HEK293T cells, read-out: CC50 (50% Cytotoxic Concentration)
Method: MTT colorimetric method was used to detect the cytotoxicity. HEK293T cells were seeded into 96-well plates (1×10^4/100 μL/well), 100 μL of each concentration of the compounds (compound concentration refers to the figures) was added in triplicate. Control wells without compound were setting at the same time. The cells were incubated in a 37° C. 5% CO2 cell incubator for 72 hours. 100 μL of the supernatant was aspirated from each well and discarded, followed by addition of 20 μL of MTT solution (5 mg/mL) into the wells. […] The absorbance was measured at 595 nm. The CC50 value (50% Cytotoxic Concentration) was calculated, i.e., the concentration of the compound required for producing toxicity on 50% of HEK293T cells.

CD4 counts = test: Phase II placebo-controlled trial in HIV immunological non-responders: CD4 counts; format: in vivo, human; settings: for participants with a CD4 count increase over 50 cells/mm^3: placebo 34.6%; for mean absolute increase of CD4 count from baseline: week 48, placebo 32; for CD4 count at Week 48: FAS, with ART
[1] = system: interferon-γ-induced protein 10 (IP-10); test: Phase II trial: serum IP-10; format: in vivo, human; design: mean change of serum interferon-γ-induced protein 10: unit not given here; settings: placebo −22.8; for mean change of serum IP-10 level: Week 48
Method: (§1) The phase II, double-blind, randomized, placebo-controlled trial was conducted in adults patients with long-term suppressed HIV infection and suboptimal CD4 recovery, at nine hospitals in China.
(§2) The patients were 1:1:1 assigned to receive oral T8 0.5 mg or 1 mg daily, or placebo combined with antiretroviral therapy for 48 weeks. All study staff and participants were masked. The study drug was recommended to be taken in the morning on an empty stomach, and be separated from participants' daily ART. Participants were followed and assessed at Week 4, 12, 24, 36 and 48 of treatment. On each scheduled visit, the investigator would assess the participant's general status, newly-onset symptoms and signs, and adverse events.
(§3) The primary endpoints of the study included 1) Absolute change of CD4 counts from baseline to week 48: 2) Proportions of participants achieving a CD4 increase ≥50 cells/mm^3 from baseline to week 48: and 3) changes of selected inflammatory markers from baseline to week 48, including interferon-y-induced protein 10 (IP-10), high-sensitivity C-reactive protein (hsCRP), and IL-6.
The primary efficacy differences between treatments on CD4 counts and inflammatory marker level were assessed through the t-test and analysis of covariance (ANCOVA) model. The ANCOVA model, including the baseline CD4 counts as the covariate, study group and center as fixed factors, generated the Least square means (LSMEANs) and relative 95% confidence interval (95% CI) in both FAS and PPS.

[2] = system: high-sensitivity C-reactive protein (hsCRP); test: Phase II trial: hsCRP; format: in vivo, human; settings: 1 mg daily (HT8), Week 48
Method: as §1, §2, §3

IL-6 = test: Phase II trial: IL-6; format: in vivo, human; settings: 1 mg daily (HT8), Week 48
Method: as §1, §2, §3

CD8 T cells = test: Phase II trial: cellular activation of CD8 T cells (CD38, HLA-DR); format: in vivo, human; settings: among the three groups (0.5 mg, 1 mg, placebo), 62 participants
Method: T-cell subsets were measured using CytoFlex flow cytometer (Beckman Coulter Life Science) at participating centers, including T cells (CD45+CD3+), CD4 T cells (CD45+CD3+CD4+), and CD8 T cells (CD45+CD3+CD8+). In PUMCH Lab. exploratory CD8 markers (CD45+CD3+CD8+CD38+ and CD45+CD3+CD8+HLA-DR+) were further measured for participants in three Beijing centers.

[3] = Phase II trial: safety (adverse events); format: in vivo, human; settings: for participants with treatment-emergent adverse events (TEAEs): placebo 80.7%
Method: as §2
Safety endpoints included occurrence of adverse events (AEs) and serious adverse events (SAEs) over the study period. Adverse events included those related to the study drug; all serious adverse events; and abnormal laboratory test values at each study visit.
The efficacy analysis was based on the full analysis set (FAS), which included all randomized patients with at least one posttreatment efficacy assessment, and the per-protocol set (PPS), which included patients who completed the study with proper study drug exposure and without any major protocol violations. The safety analysis was based on the safety analysis set (SAS), which included all randomized patients who received at least one dose of study drug. All safety results were descriptive, listed and summarized.

HIV-1 = test: Phase II trial: plasma HIV-1 viral load; format: in vivo, human; settings: all participants, with ART, 48 weeks
Method: Plasma HIV-1 viral load was measured at Peking Union Medical College Hospital (PUMCH) Lab by COBAS AmpliPrep/COBAS TaqMan V2.0 RT-PCR (Roche). The lower detection limit is 20 copies per milliliter.

CD4+T-cell subsets = test: Activation of CD4+T-cell subsets (CD38, HLA-DR expression by flow cytometry); settings: for inhibition of immune activation of CD4+T-cell subsets by PMA+Ionomycin (CD38, HLA-DR): Comparative example 3, PMA 100 nM + Ionomycin 1 μM, 100 ng/ml; for inhibition of immune activation of CD4+T-cell subsets by PMA+Ionomycin (CD38, HLA-DR) / inhibition of immune activation of CD4+T-cell subsets by anti-CD3/CD28 antibody (CD38, HLA-DR): 72 hours; for inhibition of immune activation of CD4+T-cell subsets by anti-CD3/CD28 antibody (CD38, HLA-DR): Comparative example 3, isolated CD4+T-cells, anti-CD3/CD28 beads
Method: After 48 hours, the cells were stained with anti-human CD4, CD38, HLA-DR flow cytometry antibody (purchased from Invitrogen), and the CD4^+T-cells were gated by flow cytometry to detect the expression of CD38, HLA-DR molecules on the cell surface.
Freshly isolated healthy human PBMC (3×10^7 cells) were cultured in cell culture medium containing IL-2 (20 IU/mL), stimulated with PMA (100 nM) and Ionomycin (1 μM) for 72 hours, and the compound to be tested (100 ng/ml) was added at the same time: the cells were washed twice with FACS buffer, followed by addition of anti CD3-PerCP, CD4-PE, CD38-PE-Cy7. HLA-DR-APC antibodies, stained for 30 minutes at 4° C.: the cells were washed twice with FACS buffer, and the expression of the above molecules was detected by FACS.
CD4^+T-cells were isolated from freshly isolated healthy human PBMCs with anti-CD4 antibody-coated magnetic beads through positive screening and then cultured in a medium containing IL-2 (20 IU/mL). The cell activation was stimulated with anti-CD3/CD28 antibody-coated magnetic beads for 72 hours, and the compound to be tested was added at the same time. The cells were collected, washed twice with FACS buffer, followed by addition of anti CD3-PerCP, CD4-PE, CD38-PE-Cy7, HLA-DR-APC antibodies, stained at 4° C. for 30 minutes: the cells were washed twice with FACS buffer and collected, and the expression of the above molecules was detected by flow cytometry.

CC(C)[C@]12O[C@H]1[C@@H]1O[C@]13[C@]1(O[C@H]1C[C@@]1(O)C4=C(CC[C@]31C)C(=O)OC4)[C@@H]2O [T8, (5R)-5-hydroxytriptolide]
inhibition of the activity of the NF-κB signal pathway activated by TNF-α (NF-κB): effectively inhibit | inhibition of the activity of the background NF-κB signaling pathway (NF-κB): effectively inhibit | inhibition of background NF-κB activity (untreated with TNF-alpha) (NF-κB; Example 1, HEK293T, 100 nM, 24 h, FIG. 1): effectively inhibit | inhibition of NF-κB activity stimulated by TNF-alpha (NF-κB; Example 1, HEK293T, TNF-alpha 20 ng/mL, 100 nM, 24 h, FIG. 1): effectively inhibit | inhibition of the proliferation of CD4+T-cells in healthy human peripheral blood (CD4+T-cells): significantly inhibit | proliferation of CD4+T cells stimulated by PHA (cell proliferation) (CD4+T-cells; Example 2, PBMC, PHA-P 5 μg/mL, 100 nM, 48 h, without compound 16.6%): 1.9% | CC50 at 72 h (MTT cytotoxicity test): ~0.435 µg/mL (≈ 1.16 µM) | participants with a CD4 count increase over 50 cells/mm^3 (CD4 counts; 0.5 mg daily (LT8), Week 48): 45.1% | mean absolute increase of CD4 count from baseline (CD4 counts; 0.5 mg daily (LT8)): 49 cells/mm^3 | CD4 increase in participants with a baseline CD4 count 200-350 cells/mm^3 (CD4 counts; 1 mg daily (HT8) over placebo): consistent superiority | participants achieving a CD4 increase >20% (superiority) (CD4 counts; 1 mg daily (HT8), Week 48): unremarkable | participants with a CD4 count increase over 50 cells/mm^3 (CD4 counts; 1 mg daily (HT8), Week 48): 50% | participants achieving a CD4 increase >20% (CD4 counts; 1 mg daily (HT8), week 24, versus other groups): more participants | mean absolute increase of CD4 count from baseline (CD4 counts; 1 mg daily (HT8)): 63 cells/mm^3 | mean increase of CD4 count in participants over 45 years old (CD4 counts; 1 mg daily, 48 weeks, placebo 20): 96 cells/mm^3 | CD4 count at Week 48 (CD4 counts; 0.5 mg daily oral (LT8), 48 weeks): 299 cells/mm^3 | CD4 count at Week 48 (CD4 counts; 1 mg daily oral (HT8), 48 weeks): 303 cells/mm^3 | effect on CD4 in participants with a baseline CD4 count below 200 cells/mm^3 (CD4 counts; Week 48): insignificant | changes of CD4/CD8 ratio (CD4 counts; Week 48, between the three groups (0.5 mg, 1 mg, placebo)): comparable | benefit in CD4 counts in participants receiving SARS-COV-2 vaccination (CD4 counts; high-dose (1 mg), stratified analysis): insignificant | mean change of serum IP-10 level ([1]; 0.5 mg daily (LT8)): -42.5 pg/mL | mean change of serum interferon-γ-induced protein 10 ([1]; 1 mg daily (HT8), 48 weeks): −72.1 | mean change of serum IP-10 level ([1]; 1 mg daily (HT8)): -72.1 pg/mL | change of HsCRP [2]: slight decrease | change of IL-6 (IL-6): slight decrease | surface expressions of CD38 or HLA-DR on CD8 T cells (CD8 T cells): comparable | participants with treatment-emergent adverse events (TEAEs) ([3]; 0.5 mg daily (LT8), 48 weeks): 84.3% | drug-related SAEs ([3]; 0.5 mg or 1 mg daily, 48 weeks): No drug-related SAEs were reported | tolerability ([3]; 0.5 mg or 1 mg daily, all participants): well-tolerated | participants with treatment-emergent adverse events (TEAEs) ([3]; 1 mg daily (HT8), 48 weeks): 89.1% | TEAEs ≥Grade 3 ([3]; 1 mg daily (HT8), mostly neutrophil decrease and dyslipidemia): slightly more frequent | virological suppression during the study (HIV-1): virologically-suppressed | inhibition of immune activation of CD4+T-cell subsets by PMA+Ionomycin (CD38, HLA-DR) (CD4+T-cell subsets): significantly inhibit | inhibition of immune activation of CD4+T-cell subsets by anti-CD3/CD28 antibody (CD38, HLA-DR) (CD4+T-cell subsets): significantly inhibit | HLA-DRCD4/CD4 (CD4+T-cell subsets; Example 3, PBMC, PMA 20 nM + Ionomycin 1 μM, 100 nM, 48 h, without compound 36.3%): 3.5% | CD38CD4/CD4 (CD4+T-cell subsets; Example 3, PBMC, PMA 20 nM + Ionomycin 1 μM, 100 nM, 48 h, without compound 41.6%): 31%

CC(C)[C@]12O[C@H]1[C@@H]1O[C@]13[C@]1(O[C@H]1C[C@H]1C4=C(CC[C@@]13C)C(=O)OC4)[C@@H]2O [triptolide]
inhibition of the activity of the NF-κB signal pathway activated by TNF-α (NF-κB): effectively inhibit | inhibition of the activity of the background NF-κB signaling pathway (NF-κB): effectively inhibit | inhibition of the proliferation of CD4+T-cells in healthy human peripheral blood (CD4+T-cells): significantly inhibit | CC50 at 72 h (MTT cytotoxicity test): ~0.017 µg/mL (≈ 0.0472 µM) | inhibition of immune activation of CD4+T-cell subsets by PMA+Ionomycin (CD38, HLA-DR) (CD4+T-cell subsets): significantly inhibit | inhibition of immune activation of CD4+T-cell subsets by anti-CD3/CD28 antibody (CD38, HLA-DR) (CD4+T-cell subsets): significantly inhibit
